melting point: 192 to 193 °C
SMILES: O=C1NCN(c2ccccc2)C12CCN(C1CCc3ccccc3C1)CC2 (stereo not shown) [8-[1,2,3,4tetrahydronaphthyl]-1-phenyl-1,3,8-triazospiro[4.5]decan-4-one]
